Series [1] has as its target T1, TRPC5 (Homo sapiens, UniProt Q9UL62, V455M/Q573T).
T1 construct: TRPC5-SYFP2 Q573T
T1 sequence (Q9UL62 1-973 V455M/Q573T): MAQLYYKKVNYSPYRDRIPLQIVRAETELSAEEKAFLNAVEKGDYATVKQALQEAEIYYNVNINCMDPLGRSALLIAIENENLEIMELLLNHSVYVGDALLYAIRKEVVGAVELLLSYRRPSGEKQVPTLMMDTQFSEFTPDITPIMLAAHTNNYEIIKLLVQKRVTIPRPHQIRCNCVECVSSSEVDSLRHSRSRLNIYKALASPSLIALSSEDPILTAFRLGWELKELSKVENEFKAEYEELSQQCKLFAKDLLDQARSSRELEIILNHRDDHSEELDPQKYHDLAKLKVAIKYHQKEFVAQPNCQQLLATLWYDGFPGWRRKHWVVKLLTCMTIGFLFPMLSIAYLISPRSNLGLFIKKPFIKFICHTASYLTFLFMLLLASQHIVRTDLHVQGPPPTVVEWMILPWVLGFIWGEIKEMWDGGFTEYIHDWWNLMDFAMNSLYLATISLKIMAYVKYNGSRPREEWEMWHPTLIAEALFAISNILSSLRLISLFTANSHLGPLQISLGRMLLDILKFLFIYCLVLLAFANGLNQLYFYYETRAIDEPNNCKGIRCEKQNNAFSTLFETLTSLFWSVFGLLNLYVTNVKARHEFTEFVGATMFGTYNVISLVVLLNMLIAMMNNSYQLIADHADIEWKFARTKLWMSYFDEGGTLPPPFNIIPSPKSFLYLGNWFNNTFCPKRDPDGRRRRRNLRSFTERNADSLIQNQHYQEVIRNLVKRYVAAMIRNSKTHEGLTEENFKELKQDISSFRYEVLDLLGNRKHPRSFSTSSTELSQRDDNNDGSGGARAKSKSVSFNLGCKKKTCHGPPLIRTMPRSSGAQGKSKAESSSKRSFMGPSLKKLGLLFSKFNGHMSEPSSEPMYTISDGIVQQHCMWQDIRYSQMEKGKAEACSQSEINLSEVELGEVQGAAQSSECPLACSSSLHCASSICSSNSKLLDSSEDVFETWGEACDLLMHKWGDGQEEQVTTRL
As to the kind of experiment: Fura-2 intracellular calcium assay in transfected HEK […] cells. Format: cell-based. Conditions: read-out: AM237 EC50. On the technique in general: Calcium assays in cells follow changes in intracellular calcium, usually with a dye or a luminescent sensor.

Series [2] has as its target T2, TRPC5 (Homo sapiens, UniProt Q9UL62, V455M).
T2 construct: TRPC5-SYFP2, wild-type (contains the previously described V455M)
T2 sequence (Q9UL62 1-973 V455M): T1 sequence (Q9UL62 1-973 V455M/Q573T) with T573Q
The series is described as above. Format: cell-based.

Series [3] deals with T3, TRPC5 (human TRPC5:C5 channel) (Homo sapiens, UniProt Q9UL62, V455M).
T3 construct: MBP-PreS-hTRPC5Δ766–975 (C-terminally truncated), homotetramer
T3 sequence (Q9UL62 1-765 V455M): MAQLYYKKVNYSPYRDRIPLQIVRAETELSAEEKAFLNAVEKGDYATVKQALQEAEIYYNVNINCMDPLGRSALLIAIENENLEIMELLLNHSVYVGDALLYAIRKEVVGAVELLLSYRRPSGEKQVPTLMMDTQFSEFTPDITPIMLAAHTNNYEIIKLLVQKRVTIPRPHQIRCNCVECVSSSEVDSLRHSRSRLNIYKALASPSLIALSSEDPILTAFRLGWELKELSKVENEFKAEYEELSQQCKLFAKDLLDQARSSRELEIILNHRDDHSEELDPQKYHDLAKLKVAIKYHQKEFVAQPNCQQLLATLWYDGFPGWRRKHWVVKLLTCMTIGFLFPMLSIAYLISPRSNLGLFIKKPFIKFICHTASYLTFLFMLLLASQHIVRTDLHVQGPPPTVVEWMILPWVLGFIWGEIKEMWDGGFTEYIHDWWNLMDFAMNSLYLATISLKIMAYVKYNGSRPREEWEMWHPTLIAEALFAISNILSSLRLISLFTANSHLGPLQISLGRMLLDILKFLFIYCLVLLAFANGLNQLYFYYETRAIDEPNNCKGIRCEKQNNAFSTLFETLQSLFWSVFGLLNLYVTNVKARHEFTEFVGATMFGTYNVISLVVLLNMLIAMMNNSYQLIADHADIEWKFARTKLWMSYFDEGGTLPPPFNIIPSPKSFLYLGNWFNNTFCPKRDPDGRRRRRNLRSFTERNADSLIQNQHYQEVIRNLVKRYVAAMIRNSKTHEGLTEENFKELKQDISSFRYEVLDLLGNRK
As to the kind of experiment: cryo-EM structure at […] Å; also inhibition of EA-activated channel in HEK […] calcium assay. Format: cell-based.

Series [4] concerns the molecule itself. As to the kind of experiment: cryo-EM structure; purified TRPC5 in PMAL-C8 at 2 mg/ml with 100 µM Pico145 (also 1 mg/ml with 50 µM Pico145 or 20 µM ZnCl2); C4 symmetry, also refined with C1.

Residue numbers refer to the chain shown, from its start. In names and notes the source's numbering stands.

One may read the EC50 as the midpoint of the concentration-response curve. `Cn1c(=O)n(CCCO)c(=O)c2c1nc(Oc1ccc(Cl)c(OC(F)(F)F)c1)n2Cc1ccc(Cl)cc1` [AM237]: the EC50 in series [1] came out at 110 nM; in series [2], 10.6 nM. By IC50 is commonly meant the concentration that inhibits the measured activity by half. As to `Cn1c(=O)n(CCCO)c(=O)c2c1nc(Oc1cccc(OC(F)(F)F)c1)n2Cc1ccc(Cl)cc1` [Pico145], the IC50 in series [3] was determined as 4 nM.

B1: MBP-PreS-hTRPC5(Δ766–975) (complex, human, UniProt Q9UL62 1-765, looked up)
chain: T3 sequence (Q9UL62 1-765 V455M)
notes: Transient Receptor Potential Canonical 5 (TRPC5), human, C-terminally truncated (Δ766–975), carries V455M from the PCR template TRPC5-SYFP2; A PreScission protease site (PreS) lies between MBP and TRPC5; MBP, PreS and the first 16 residues of TRPC5 were not resolved in the map; Homotetrameric channel in amphipol PMAL-C8; also called human TRPC5; TRPC5:C5 channel; not shown: MBP, N-terminal, kept
Broadly, the stoichiometry N is a count of units in the complex or per binding partner. Turning to B1, the “stoichiometry N” value in series [4] is 4.

These data come from publication PMC7683545, “Human TRPC5 structures reveal interaction of a xanthine-based TRPC1/4/5 inhibitor with a conserved lipid binding site” (Communications Biology, 2020).
